# Reference: the OPERA property sets (Mansouri et al. 2018)
row,Compound,logP
1,C=C1C(=O)OC2CC3(C)CCCC(C)C3=CC12 (centres undefined),3.38
2,C=C(C)C(=O)OCc1ccccc1,2.53
3,Cc1cc(Br)cc(C(N)=O)c1O,2.76
4,CCCN(CCC)CC(=O)NC1c2ccccc2-c2ccccc21,4.61
5,OC1CCCc2ccccc21 (centres undefined),1.98
6,O=C(c1ccc(C(F)(F)F)cc1)c1ccc2n1CCC2C(=O)O (centres undefined),3.71
7,c1ccc(-c2nccs2)cc1,2.77
8,CCn1c(=O)[nH]c(=O)c2[nH]cnc21,-0.11
9,O=C(CN1CCCC1)NCc1ccccc1,1.69
10,O=C(CN1CCOCC1)NCc1ccccc1,0.67
11,C=C(C)C(=O)OCC(C)(C)COC(=O)C(=C)C,2.79
12,CCCCCCC(C)(C)c1ccc(C2CC(O)CCC2C)c(O)c1 (centres undefined),7.49
13,CCCCCCCCCCC(C)(C)c1ccc(C2CCCC(O)C2)c(O)c1 (centres undefined),8.42
14,CCOC(=O)OCCC(SC(=O)OCC)=C(C)N(C=O)CC1=C(C(=O)OCOC(=O)C(C)(C)C)N2C(=O)C(NC(=O)C(=NOC)c3csc(N)n3)C2SC1 (centres undefined),3.34
15,Cc1cnc(NS(=O)(=O)c2ccc(N)cc2)nc1,0.34
16,CCCCCCCCCCCCCc1cccc(O)c1,8.84
17,CCCC(=O)OCC(=O)C1(O)CCC2C3CCC4=CC(=O)CCC4(C)C3C(O)CC21C (centres undefined),2.91
18,CC1Cc2ccccc2CN1 (centres undefined),1.93
19,Nc1ccc(S(=O)(=O)Nc2ccccc2[N+](=O)[O-])cc1,2.11
20,Cc1c2ccccc2c(C)c2ccccc12,5.69
21,CNC(=C[N+](=O)[O-])NCCSCc1ccc(CN(C)C)o1,0.27
22,CCNC(=O)c1cc(Br)cc(C)c1O,3.61
23,OC(Cn1ccnc1)(c1ccc(F)cc1)c1ccc(-c2ccccc2)cc1 (centres undefined),4.23

row,Compound,logP
1,COc1ccc(CCNCC(O)COc2ccc(-c3nc(C(C)=O)c(C)[nH]3)cc2)cc1OC (centres undefined),2.14
2,CCCCCCC(C)(C)c1ccc(C2CCCC(O)C2)c(O)c1 (centres undefined),6.68
3,O=[N+]([O-])c1nccn1CCN1CCOCC1,-0.1
4,Cc1ccc(Br)cc1N=C1NCCN1,1.94
5,CC(=O)C(C)CN1CCCCC1 (centres undefined),1.28
6,Clc1cccc(Br)c1N=C1NCCN1,1.73
7,c1ccc(-c2cnc3ccccc3n2)cc1,3.48
8,O=C(c1cccc(C(F)(F)F)c1)c1ccc2n1CCC2C(=O)O (centres undefined),3.69
9,CC(=O)c1ccccc1Br,2.28
10,O=C(Cn1ccnc1[N+](=O)[O-])NCC(O)CO (centres undefined),-1.85
11,CCCCCC(CCC)C(=O)O (centres undefined),3.2
12,CC1(C)C(C=C2CCSC2=O)C1C(=O)OCc1ccccc1 (centres undefined),4.02
13,Fc1ccc(F)c(F)c1,2.52
14,COc1ccc(C(=O)OCC2OC(n3cnc4c(OC)ncnc43)C2OC(=O)c2ccc(OC)cc2)cc1 (centres undefined),3.65
15,CCOC(=O)c1ccc(S(N)(=O)=O)cc1,1.17
16,c1ccc2c(c1)Cc1c-2ccc2ccccc12,5.4
17,CN(C)[C@@H]1C(O)=C(C(N)=O)C(=O)[C@@]2(O)C(O)=C3C(=O)c4c(O)ccc(Cl)c4[C@@](C)(O)[C@H]3C[C@@H]12,-0.62
18,CC1(C)CC(N)CC(C)(C)N1O,0.56
19,O=c1ccn([C@H]2CC[C@@H](CO)O2)c(=O)[nH]1,-1
20,O=C1NC(=O)C(c2ccccc2)C(=O)N1,-0.17
21,CC(C)NC(=O)COc1ccc(OCCNCC(O)COc2ccccc2)cc1 (centres undefined),2.4
22,OC1(c2cc(Cl)ccc2Cl)CCCCC1n1cncn1 (centres undefined),3.24
23,CCCCCc1cc(OC)c2c(c1)OC(C)(C)C1CC=C(C)CC21 (centres undefined),8.06

row,Compound,logP
1,CCN(CC)C(=O)c1cccc(C)c1,2.18
2,CCNCC(=O)Nc1c(C)cccc1C,1.32
3,OC(CN1CCOCC1)(c1ccc(F)cc1)c1ccc(-c2ccncc2)cc1 (centres undefined),2.82
4,Cc1cc2occc2c2oc(=O)ccc12,2.41
5,COCCNC(=O)COc1ccc(OCCNCC(O)COc2ccccc2)cc1 (centres undefined),1.7
6,Cc1cc(C)c(O)c(C)c1,2.73
7,CC(C)(C)c1ccc(CC(=O)O)cc1,2.98
8,O=C(O)CCC(=O)c1ccccc1,1.3
9,CO[C@@]1(NC(=O)Cc2cccs2)C(=O)N2C(C(=O)O)=C(COC(N)=O)CS[C@@H]21,-0.02
10,CC(C)C(=O)O,0.94
11,Clc1cc(Cl)cc(-c2ccccc2)c1,5.41
12,CC(=O)C(C(=O)ON=C(C)C12CC3CC(CC(C3)C1)C2)c1ccccc1 (centres undefined),4.64
13,O=Cc1cccc(Cl)c1,2.26
14,CC(N)CC1CCCCCCC1 (centres undefined),3.7
15,Cc1ccc(N(C)C)cc1,2.81
16,CCOC(=O)Cn1nnc2ccccc21,1.3
17,CCc1cc(CC)cc(C2C(=O)c3ccccc3C2=O)c1,4.94
18,Clc1ccc(OCc2cccc(CN3CCOCC3)c2)cc1,3.52
19,Clc1ccc(Br)cc1NC1=NCCN1,2.05
20,c1ccc2cc3cc4ccccc4cc3cc2c1,5.76
21,FC(F)(c1ccccc1)C(F)(F)c1ccccc1,5
22,C=CCC(NC(=O)C(Cc1ccccc1)NS(=O)(=O)N1CCOCC1)C(=O)NC(COC(F)(F)C(=O)NCCN1CCOCC1)CC1CCCCC1 (centres undefined),3.17
23,C=CCC(NC(=O)C(Cc1ccccc1)NS(=O)(=O)N1CCN(C)CC1)C(=O)NC(CC1CCCCC1)C(=O)C(F)(F)C(=O)NCCN1CCOCC1 (centres undefined),2.73
